Measurements: paper PMC8318231, “Rate-of-Kill (RoK) assays to triage large compound sets for Chagas disease drug discovery: Application to GSK Chagas Box” (PLoS Neglected Tropical Diseases, 2021)

Tests used:
[1] = test system: T. cruzi Tulahuen trypomastigotes; assay: T. cruzi trypomastigote assay (Cell Titer-Glo viability, ATP luminescence); type: cell-based, Trypanosoma cruzi; conditions: for Trypomastigotes pIC50 48 hours: 48 hours incubation; for Trypomastigotes pIC50 48 hours / Trypomastigotes pIC50 72 hours: pIC50 = -log10 IC50 in molar units; for Trypomastigotes pIC50 72 hours: 72 hours incubation; for 72 pIC50 (trypomastigotes, raw data of Fig 1D): 72 hours, plotted values, censored values given without sign; for 48 pIC50 / 72 pIC50: trypomastigote assay; for 48 pIC50: 48 h; for 72 pIC50: 72 h
In short: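 Compounds were tested in dose response or once at a final 5 μM against 5 × 10^4 trypomastigotes per well (DMEM, 2% FBS), collected on days 5–8 from LLC-MK2 infected cultures. ATP luminescence via CellTiter-Glo reports live parasites; DMSO defines 0% and cell-free wells 100% effect.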

[2] = test system: T. cruzi intracellular amastigotes in H9c2 cells; assay: Rate-of-Kill (RoK) high-content imaging assay, amastigotes per cell (AM/CELL) and curve descriptors; type: cell-based, Trypanosoma cruzi; parameters: key to ME_24h / ME_48h / ME_72h: % reduction in parasite burden (cidal response); t50pct_MCC50 / t50pct_Cmax: unit not given here; conditions: for ME_24h: 24h; for ME_48h: 48h; for ME_72h: 72h; for ME_24h (%): maximum effect at 24 h; for ME_24h (%) / ME_48h (%) / ME_72h (%): RoK assay; for ME_48h (%): maximum effect at 48 h; for ME_72h (%): maximum effect at 72 h; for ME 24h (maximum effect at 24 hours, intracellular amastigotes): maximum percentage of parasite burden reduction reached by any concentration
In short: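 Readouts at each time point are amastigotes per cell and host nuclei count (cytotoxicity), from DRAQ5 high-content imaging. Infection: trypomastigotes on H9c2 at MOI 8 for 18 h. Dosing was 5 μM single point or 11 points, 1/3 steps from 50 μM. Effect scaled between 4 h infected and uninfected controls.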

SMILES | Trypomastigotes pIC50 48 hours [1] | Trypomastigotes pIC50 72 hours [1] | ME_24h ([2]; figure 5) | ME_48h ([2]; figure 5) | ME_72h ([2]; figure 5) | MCCE ([2]; RoK curve descriptor) | tlag_Cmax ([2]; at Cmax) | t50pct_Cmax ([2]; at Cmax, figure 5) | tlag_Cmax ([2]; at Cmax, figure 5) | t50pct_MCC50 ([2]; at MCC50, figure 5) | tlag_MCC50 ([2]; at MCC50, figure 5) | MCCE ([2]; figure 5) | ME_24h (%) [2] | ME_48h (%) [2] | ME_72h (%) [2] | ME 24h (maximum effect at 24 hours, intracellular amastigotes) [2] | 72 pIC50 (trypomastigotes, raw data of Fig 1D) [1] | 48 pIC50 ([1]; figure 1A) | 72 pIC50 ([1]; figure 1A) | 72 pIC50 ([1]; figure 1B) | further results
CN(C)Cc1ccc(N2CCC(NS(=O)(=O)c3ccc(Cl)cc3)CC2)cc1 [TCMDC-143623] | 4.5 | 4.4 | -87.7558 | -504.665 | -765.031 | 1.0 µM | 38.0 h | 60 | 38 | 72 | 48 | 1.029 | -87.8% | -504.7% | -765.0% | 25.2228% | – | – | – | – | activity in trypomastigotes assay (in words) ([1]; 48 and 72 hours): poorly active; ME (maximum effect) in RoK assay (in words) [2]: positive ME throughout all times; cidality in the RoK assay (in words) [2]: cidal; tlag (in words) [2]: short tlag times; MCC50 ([2]; RoK curve descriptor): 1.9 µM; AM/CELL NORM ([2]; Time 4, figure 4 A): -0.7307; AM/CELL NORM ([2]; Time 24, figure 4 A): -44.6697; AM/CELL NORM ([2]; Time 48, figure 4 A): 60.0074; AM/CELL NORM ([2]; Time 72, figure 4 A): 92.6225; t50%_Cmax ([2]; at Cmax): 60.0 h; t50%_MCC50 ([2]; at MCC50): 72.0 h; tlag_MCC50 ([2]; at MCC50): 24.0 h; MCC50 ([2]; figure 5, in µM): 25.9259
O=c1[nH]ccc2ccc(-c3ccncc3)cc12 [TCMDC-143631] | < 4.3 | < 4.3 | -43.2523 | -170.763 | 18.409 | 0.6 µM | 48.0 h | 72 | 48 | 72 | 72 | 0.6173 | -43.3% | -170.8% | 18.4% | -43.2523% | < 4.3 | < 4.3 | < 4.3 | < 4.3 | AM/CELL NORM ([2]; Time 4, sheet figure 4 A): -16.1027; AM/CELL NORM ([2]; Time 24, sheet figure 4 A): -43.2523; AM/CELL NORM ([2]; Time 48, sheet figure 4 A): -202.655; AM/CELL NORM ([2]; Time 72, sheet figure 4 A): 18.409; MCC50 ([2]; figure 5): 50 µM
O=C(O)/C=C\C(=O)O.O=C(c1ccc(OCCCc2cnc[nH]2)cc1)C1CC1 [TCMDC-143632] | < 4.3 | < 4.3 | -9.2427 | 8.208 | 46.1088 | 5.6 µM | 24.0 h | 72 | 24 | 72 | 72 | 5.556 | -9.2% | 8.2% | 46.1% | -9.2427% | < 4.3 | < 4.3 | < 4.3 | < 4.3 | AM/CELL NORM ([2]; Time 4, sheet figure 4 A): 10.5519; AM/CELL NORM ([2]; Time 24, sheet figure 4 A): -53.2211; AM/CELL NORM ([2]; Time 48, sheet figure 4 A): -4.213; AM/CELL NORM ([2]; Time 72, sheet figure 4 A): 38.8877; MCC50 ([2]; figure 5): 50 µM
